{"source": "patent US11767310B2", "about": "“Nicotinamide RIPK1 inhibitors” (AbbVie Inc., priority 2021, dated 2023)", "assay_in_all_cases": "Kinase binding screen", "conditions_in_all_cases": "read-out: Percent Control at 100 nM Compound Concentration", "key": {"[1]": {"target": "SNRK (Homo sapiens (Human), UniProt Q9NRH2)"}, "[2]": {"target": "PRKD3 (Homo sapiens (Human), UniProt O94806)"}, "[3]": {"target": "CAMK1B (Homo sapiens (Human), UniProt Q6P2M8)", "sequence (Q6P2M8 whole entry)": "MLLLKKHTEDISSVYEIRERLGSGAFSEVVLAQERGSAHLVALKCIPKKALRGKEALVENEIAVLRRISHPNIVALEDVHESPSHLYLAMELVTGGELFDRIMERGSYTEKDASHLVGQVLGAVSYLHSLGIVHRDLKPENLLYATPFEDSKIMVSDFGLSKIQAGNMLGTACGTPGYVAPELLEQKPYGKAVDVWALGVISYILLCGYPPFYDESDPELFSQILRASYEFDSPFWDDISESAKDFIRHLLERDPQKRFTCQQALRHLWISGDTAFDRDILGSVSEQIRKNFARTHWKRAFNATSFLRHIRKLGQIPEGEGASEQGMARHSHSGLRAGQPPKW"}, "[4]": {"target": "ULK1 (Homo sapiens (Human), UniProt O75385)"}, "[5]": {"target": "MST1 (Homo sapiens (Human), UniProt Q13043)"}, "[6]": {"target": "DCAMKL2 (Homo sapiens (Human), UniProt Q8N568)"}, "[7]": {"target": "DYRK1A (Homo sapiens (Human), UniProt Q13627)"}, "[8]": {"target": "RSK2(Kin.Dom.1-N-terminal) (Homo sapiens (Human), UniProt P51812)"}, "[9]": {"target": "BUB1 (Homo sapiens (Human), UniProt O43683)"}, "[10]": {"target": "RPS6KA4(Kin.Dom.1-N-terminal) (Homo sapiens (Human), UniProt O75676)", "sequence (O75676 33-301)": "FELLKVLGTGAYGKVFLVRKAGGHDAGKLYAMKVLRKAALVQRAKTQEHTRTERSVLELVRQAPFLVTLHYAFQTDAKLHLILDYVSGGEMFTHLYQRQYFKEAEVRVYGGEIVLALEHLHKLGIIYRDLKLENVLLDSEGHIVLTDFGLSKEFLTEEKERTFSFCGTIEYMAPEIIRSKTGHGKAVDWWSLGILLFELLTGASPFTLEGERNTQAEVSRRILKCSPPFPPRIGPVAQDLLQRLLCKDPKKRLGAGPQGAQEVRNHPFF"}, "[11]": {"target": "MAP3K1 (Homo sapiens (Human), UniProt Q13233)"}, "[12]": {"target": "HIPK2 (Homo sapiens (Human), UniProt Q9H2X6)", "sequence (Q9H2X6 whole entry)": "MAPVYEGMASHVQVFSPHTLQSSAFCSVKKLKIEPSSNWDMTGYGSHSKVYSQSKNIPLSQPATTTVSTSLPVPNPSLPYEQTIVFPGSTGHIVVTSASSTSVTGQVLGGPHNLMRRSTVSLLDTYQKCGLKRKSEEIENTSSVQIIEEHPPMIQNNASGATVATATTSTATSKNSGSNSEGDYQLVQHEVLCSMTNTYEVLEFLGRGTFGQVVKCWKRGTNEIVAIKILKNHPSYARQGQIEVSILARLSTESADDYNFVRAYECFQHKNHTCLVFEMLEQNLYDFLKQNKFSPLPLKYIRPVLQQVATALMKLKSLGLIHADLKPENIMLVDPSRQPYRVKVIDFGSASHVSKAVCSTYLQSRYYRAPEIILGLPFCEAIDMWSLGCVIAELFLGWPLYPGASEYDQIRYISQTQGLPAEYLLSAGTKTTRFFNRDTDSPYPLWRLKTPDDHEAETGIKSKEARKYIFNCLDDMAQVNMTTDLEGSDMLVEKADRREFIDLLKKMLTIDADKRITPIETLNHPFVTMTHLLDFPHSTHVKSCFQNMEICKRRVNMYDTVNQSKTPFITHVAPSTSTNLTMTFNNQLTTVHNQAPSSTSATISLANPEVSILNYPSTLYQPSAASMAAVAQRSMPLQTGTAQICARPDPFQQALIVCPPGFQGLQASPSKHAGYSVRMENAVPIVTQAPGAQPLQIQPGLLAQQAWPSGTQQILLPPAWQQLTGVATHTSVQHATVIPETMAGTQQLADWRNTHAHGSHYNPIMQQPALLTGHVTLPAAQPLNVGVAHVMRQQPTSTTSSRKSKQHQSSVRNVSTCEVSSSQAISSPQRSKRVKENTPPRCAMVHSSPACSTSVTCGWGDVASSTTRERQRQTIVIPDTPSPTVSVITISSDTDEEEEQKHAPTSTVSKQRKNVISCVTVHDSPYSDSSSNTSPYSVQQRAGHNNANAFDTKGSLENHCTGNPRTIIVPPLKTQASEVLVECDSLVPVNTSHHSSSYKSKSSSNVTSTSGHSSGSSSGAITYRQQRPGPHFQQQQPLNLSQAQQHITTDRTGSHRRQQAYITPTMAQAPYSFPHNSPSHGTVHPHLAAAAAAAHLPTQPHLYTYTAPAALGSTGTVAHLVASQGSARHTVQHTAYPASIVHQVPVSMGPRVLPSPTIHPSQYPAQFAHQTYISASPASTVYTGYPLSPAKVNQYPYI"}, "[13]": {"target": "DLK (Homo sapiens (Human), UniProt Q12852)", "sequence (Q12852 whole entry)": "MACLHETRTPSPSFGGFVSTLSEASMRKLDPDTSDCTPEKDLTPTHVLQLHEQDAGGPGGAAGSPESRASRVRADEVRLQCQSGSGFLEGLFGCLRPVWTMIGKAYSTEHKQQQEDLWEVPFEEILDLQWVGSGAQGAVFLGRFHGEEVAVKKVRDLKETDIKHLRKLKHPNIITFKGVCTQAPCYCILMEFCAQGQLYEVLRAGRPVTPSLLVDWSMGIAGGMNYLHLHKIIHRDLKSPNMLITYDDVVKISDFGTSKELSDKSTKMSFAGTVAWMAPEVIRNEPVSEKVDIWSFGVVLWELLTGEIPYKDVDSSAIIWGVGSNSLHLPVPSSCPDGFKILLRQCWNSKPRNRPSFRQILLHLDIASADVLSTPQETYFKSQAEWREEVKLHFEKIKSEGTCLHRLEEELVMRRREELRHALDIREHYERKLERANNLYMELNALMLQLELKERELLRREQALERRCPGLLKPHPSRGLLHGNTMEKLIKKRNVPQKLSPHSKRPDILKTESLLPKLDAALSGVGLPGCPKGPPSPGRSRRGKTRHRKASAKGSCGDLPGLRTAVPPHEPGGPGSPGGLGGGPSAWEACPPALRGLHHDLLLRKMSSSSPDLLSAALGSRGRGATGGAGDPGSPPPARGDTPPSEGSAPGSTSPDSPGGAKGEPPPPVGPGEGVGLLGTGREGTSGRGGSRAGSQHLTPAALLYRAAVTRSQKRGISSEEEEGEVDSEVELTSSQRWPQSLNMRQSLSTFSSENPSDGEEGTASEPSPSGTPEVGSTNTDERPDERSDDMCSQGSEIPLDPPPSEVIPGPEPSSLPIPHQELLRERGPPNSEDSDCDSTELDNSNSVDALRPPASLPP"}, "[14]": {"target": "PIK3CA(H1047L) (Homo sapiens (Human), UniProt P42336, H1047L)"}, "[15]": {"target": "JAK1(JH2domain-pseudokinase) (Homo sapiens (Human), UniProt P23458)", "sequence (P23458 583-855)": "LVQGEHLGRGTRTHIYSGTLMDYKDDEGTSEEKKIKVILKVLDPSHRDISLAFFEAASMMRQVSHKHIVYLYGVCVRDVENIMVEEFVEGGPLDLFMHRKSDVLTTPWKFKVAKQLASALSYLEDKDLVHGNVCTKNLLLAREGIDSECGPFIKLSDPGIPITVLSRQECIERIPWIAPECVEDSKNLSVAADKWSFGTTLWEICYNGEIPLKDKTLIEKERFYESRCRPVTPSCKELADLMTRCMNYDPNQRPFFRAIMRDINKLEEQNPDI"}, "[16]": {"target": "EGFR(L861Q) (Homo sapiens (Human), UniProt P00533, L861Q)", "sequence (P00533 25-1210 L861Q)": "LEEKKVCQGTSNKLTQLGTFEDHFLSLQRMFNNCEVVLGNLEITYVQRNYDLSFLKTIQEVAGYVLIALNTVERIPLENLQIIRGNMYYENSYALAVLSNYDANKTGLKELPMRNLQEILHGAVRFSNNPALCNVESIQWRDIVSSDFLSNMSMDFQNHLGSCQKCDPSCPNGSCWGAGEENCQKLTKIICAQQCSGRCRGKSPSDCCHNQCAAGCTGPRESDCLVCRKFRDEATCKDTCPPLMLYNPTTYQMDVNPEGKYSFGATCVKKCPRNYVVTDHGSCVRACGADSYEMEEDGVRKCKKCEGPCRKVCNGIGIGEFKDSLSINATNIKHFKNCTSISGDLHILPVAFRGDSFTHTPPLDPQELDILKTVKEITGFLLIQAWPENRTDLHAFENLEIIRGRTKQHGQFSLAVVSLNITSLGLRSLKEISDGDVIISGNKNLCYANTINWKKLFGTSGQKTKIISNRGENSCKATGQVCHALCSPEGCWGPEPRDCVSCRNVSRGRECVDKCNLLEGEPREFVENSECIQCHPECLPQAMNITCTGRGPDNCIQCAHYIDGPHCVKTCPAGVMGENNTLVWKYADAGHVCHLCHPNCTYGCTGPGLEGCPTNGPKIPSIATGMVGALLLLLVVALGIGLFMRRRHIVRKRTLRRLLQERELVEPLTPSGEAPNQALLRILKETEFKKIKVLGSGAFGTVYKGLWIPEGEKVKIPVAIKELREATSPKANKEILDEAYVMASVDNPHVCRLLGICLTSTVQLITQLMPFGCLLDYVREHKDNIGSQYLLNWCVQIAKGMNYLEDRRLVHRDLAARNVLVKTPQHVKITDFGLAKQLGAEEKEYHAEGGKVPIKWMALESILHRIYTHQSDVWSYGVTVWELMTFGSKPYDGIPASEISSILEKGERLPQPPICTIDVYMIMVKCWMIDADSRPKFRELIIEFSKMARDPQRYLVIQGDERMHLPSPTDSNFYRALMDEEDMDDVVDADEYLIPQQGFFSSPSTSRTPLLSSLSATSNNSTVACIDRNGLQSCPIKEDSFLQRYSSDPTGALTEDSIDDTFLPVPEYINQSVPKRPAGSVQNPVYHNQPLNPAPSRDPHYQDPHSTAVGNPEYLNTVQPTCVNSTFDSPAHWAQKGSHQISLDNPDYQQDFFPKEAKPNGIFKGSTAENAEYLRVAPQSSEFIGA"}, "[17]": {"target": "CDK4 (Homo sapiens (Human), UniProt P11802)"}, "[18]": {"target": "CAMK2B (Homo sapiens (Human), UniProt Q13554)"}, "[19]": {"target": "DAPK2 (Homo sapiens (Human), UniProt Q9UIK4)"}, "[20]": {"target": "MUSK (Homo sapiens (Human), UniProt O15146)"}, "[21]": {"target": "MEK5 (Homo sapiens (Human), UniProt Q13163)"}, "[22]": {"target": "AURKB (Homo sapiens (Human), UniProt Q96GD4)"}, "[23]": {"target": "FLT3(D835H) (Homo sapiens (Human), UniProt P36888, D835H)"}, "[24]": {"target": "MTOR (Homo sapiens (Human), UniProt P42345)"}, "[25]": {"target": "CDKL2 (Homo sapiens (Human), UniProt Q92772)", "sequence (Q92772 whole entry)": "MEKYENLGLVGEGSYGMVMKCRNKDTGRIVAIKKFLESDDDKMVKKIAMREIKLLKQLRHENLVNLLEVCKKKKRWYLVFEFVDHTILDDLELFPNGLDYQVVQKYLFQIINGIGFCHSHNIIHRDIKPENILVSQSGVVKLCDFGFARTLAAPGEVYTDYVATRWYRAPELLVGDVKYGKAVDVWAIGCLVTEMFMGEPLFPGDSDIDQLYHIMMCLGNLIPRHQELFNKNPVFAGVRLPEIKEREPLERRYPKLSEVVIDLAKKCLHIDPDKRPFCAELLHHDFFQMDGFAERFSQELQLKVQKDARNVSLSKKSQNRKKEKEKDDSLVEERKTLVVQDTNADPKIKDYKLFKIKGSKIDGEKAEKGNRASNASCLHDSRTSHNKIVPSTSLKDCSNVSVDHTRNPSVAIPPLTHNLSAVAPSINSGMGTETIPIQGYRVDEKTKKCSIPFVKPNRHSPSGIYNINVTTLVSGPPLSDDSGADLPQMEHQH"}, "[26]": {"target": "ERK1 (Homo sapiens (Human), UniProt P27361)", "sequence (P27361 whole entry)": "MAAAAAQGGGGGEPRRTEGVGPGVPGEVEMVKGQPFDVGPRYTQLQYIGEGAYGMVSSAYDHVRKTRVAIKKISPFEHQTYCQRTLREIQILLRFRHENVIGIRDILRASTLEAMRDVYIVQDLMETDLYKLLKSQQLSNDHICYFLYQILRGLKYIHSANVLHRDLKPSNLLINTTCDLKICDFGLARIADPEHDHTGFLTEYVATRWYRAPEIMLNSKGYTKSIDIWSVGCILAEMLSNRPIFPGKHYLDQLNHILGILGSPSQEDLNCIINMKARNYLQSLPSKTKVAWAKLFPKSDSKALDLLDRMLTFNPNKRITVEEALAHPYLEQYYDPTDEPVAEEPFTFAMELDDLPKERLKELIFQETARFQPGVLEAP"}}, "note": "Where two headings read alike, the source gives them in different places.", "data": [{"smiles": "CN(C[C@@H](O)Cc1ccccc1)C(=O)c1cncc(C#Cc2cnn(C(F)F)c2)c1", "note": "[Example 2, (S)-5-((1-(difluoromethyl)-1H-pyrazol-4-yl)ethynyl)-N-(2-hydroxy-3-phenylpropyl)-N-methylnicotinamide]", "values": [{"measurement": "remaining activity at 0.1 µM", "setting": "[1]; SNRK", "result": 100, "unit": "%"}, {"measurement": "remaining activity at 0.1 µM", "setting": "[2]; PRKD3", "result": 100, "unit": "%"}, {"measurement": "remaining activity at 0.1 µM", "setting": "[3]; CAMK1B", "result": 82, "unit": "%"}, {"measurement": "remaining activity at 0.1 µM", "setting": "[4]; ULK1", "result": 100, "unit": "%"}, {"measurement": "remaining activity at 0.1 µM", "setting": "[5]; MST1", "result": 100, "unit": "%"}, {"measurement": "remaining activity at 0.1 µM", "setting": "[6]; DCAMKL2", "result": 100, "unit": "%"}, {"measurement": "remaining activity at 0.1 µM", "setting": "[7]; DYRK1A", "result": 90, "unit": "%"}, {"measurement": "remaining activity at 0.1 µM", "setting": "[8]; RSK2(Kin.Dom.1-N-terminal)", "result": 100, "unit": "%"}, {"measurement": "remaining activity at 0.1 µM", "setting": "[9]; BUB1", "result": 93, "unit": "%"}, {"measurement": "remaining activity at 0.1 µM", "setting": "[10]; RPS6KA4(Kin.Dom.1-N-terminal)", "result": 97, "unit": "%"}, {"measurement": "remaining activity at 0.1 µM", "setting": "[11]; MAP3K1", "result": 100, "unit": "%"}, {"measurement": "remaining activity at 0.1 µM", "setting": "[12]; HIPK2", "result": 99, "unit": "%"}, {"measurement": "remaining activity at 0.1 µM", "setting": "[13]; DLK", "result": 100, "unit": "%"}, {"measurement": "remaining activity at 0.1 µM", "setting": "[14]; PIK3CA(H1047L)", "result": 85, "unit": "%"}, {"measurement": "remaining activity at 0.1 µM", "setting": "[15]; JAK1(JH2domain-pseudokinase)", "result": 93, "unit": "%"}, {"measurement": "remaining activity at 0.1 µM", "setting": "[16]; EGFR(L861Q)", "result": 100, "unit": "%"}, {"measurement": "remaining activity at 0.1 µM", "setting": "[17]; CDK4", "result": 100, "unit": "%"}, {"measurement": "remaining activity at 0.1 µM", "setting": "[18]; CAMK2B", "result": 100, "unit": "%"}, {"measurement": "remaining activity at 0.1 µM", "setting": "[19]; DAPK2", "result": 100, "unit": "%"}, {"measurement": "remaining activity at 0.1 µM", "setting": "[20]; MUSK", "result": 100, "unit": "%"}, {"measurement": "remaining activity at 0.1 µM", "setting": "[21]; MEK5", "result": 89, "unit": "%"}, {"measurement": "remaining activity at 0.1 µM", "setting": "[22]; AURKB", "result": 100, "unit": "%"}, {"measurement": "remaining activity at 0.1 µM", "setting": "[23]; FLT3(D835H)", "result": 100, "unit": "%"}, {"measurement": "remaining activity at 0.1 µM", "setting": "[24]; MTOR", "result": 73, "unit": "%"}, {"measurement": "remaining activity at 0.1 µM", "setting": "[25]; CDKL2", "result": 100, "unit": "%"}, {"measurement": "remaining activity at 0.1 µM", "setting": "[26]; ERK1", "result": 97, "unit": "%"}]}, {"smiles": "CN(C[C@H](Cc1ccccc1)OP(=O)(O)O)C(=O)c1cncc(C#Cc2cnn(C(F)F)c2)c1", "note": "[Example 19, (S)-1-(5-((1-(difluoromethyl)-1H-pyrazol-4-yl)ethynyl)-N-methylnicotinamido)-3-phenylpropan-2-yl dihydrogen phosphate]", "values": [{"measurement": "remaining activity at 0.1 µM", "setting": "[1]", "result": 100, "unit": "%"}, {"measurement": "remaining activity at 0.1 µM", "setting": "[2]", "result": 100, "unit": "%"}, {"measurement": "remaining activity at 0.1 µM", "setting": "[3]", "result": 83, "unit": "%"}, {"measurement": "remaining activity at 0.1 µM", "setting": "[4]", "result": 100, "unit": "%"}, {"measurement": "remaining activity at 0.1 µM", "setting": "[5]", "result": 100, "unit": "%"}, {"measurement": "remaining activity at 0.1 µM", "setting": "[6]", "result": 100, "unit": "%"}, {"measurement": "remaining activity at 0.1 µM", "setting": "[7]", "result": 85, "unit": "%"}, {"measurement": "remaining activity at 0.1 µM", "setting": "[8]", "result": 94, "unit": "%"}, {"measurement": "remaining activity at 0.1 µM", "setting": "[9]", "result": 85, "unit": "%"}, {"measurement": "remaining activity at 0.1 µM", "setting": "[10]", "result": 100, "unit": "%"}, {"measurement": "remaining activity at 0.1 µM", "setting": "[11]", "result": 100, "unit": "%"}, {"measurement": "remaining activity at 0.1 µM", "setting": "[12]", "result": 79, "unit": "%"}, {"measurement": "remaining activity at 0.1 µM", "setting": "[13]", "result": 100, "unit": "%"}, {"measurement": "remaining activity at 0.1 µM", "setting": "[14]", "result": 71, "unit": "%"}, {"measurement": "remaining activity at 0.1 µM", "setting": "[15]", "result": 86, "unit": "%"}, {"measurement": "remaining activity at 0.1 µM", "setting": "[16]", "result": 86, "unit": "%"}, {"measurement": "remaining activity at 0.1 µM", "setting": "[17]", "result": 93, "unit": "%"}, {"measurement": "remaining activity at 0.1 µM", "setting": "[18]", "result": 92, "unit": "%"}, {"measurement": "remaining activity at 0.1 µM", "setting": "[19]", "result": 90, "unit": "%"}, {"measurement": "remaining activity at 0.1 µM", "setting": "[20]", "result": 100, "unit": "%"}, {"measurement": "remaining activity at 0.1 µM", "setting": "[21]", "result": 87, "unit": "%"}, {"measurement": "remaining activity at 0.1 µM", "setting": "[22]", "result": 90, "unit": "%"}, {"measurement": "remaining activity at 0.1 µM", "setting": "[23]", "result": 100, "unit": "%"}, {"measurement": "remaining activity at 0.1 µM", "setting": "[24]", "result": 67, "unit": "%"}, {"measurement": "remaining activity at 0.1 µM", "setting": "[25]", "result": 95, "unit": "%"}, {"measurement": "remaining activity at 0.1 µM", "setting": "[26]", "result": 95, "unit": "%"}]}]}
